Measured values taken from patent US4447452A, “N[(2-Naphthalenyl)thioxomethyl]glycine derivatives” (Ayerst, McKenna & Harrison Inc., priority 1981, dated 1984).

How the values were obtained:
aldose reductase [1] = details: literature report; cited from earlier work
aldose reductase [2] = biological target: T1, aldose reductase (Bos taurus, UniProt P16116); assay: in vitro aldose reductase inhibition (modified Hayman and Kinoshita procedure, enzyme from bovine lens); type: biochemical; details: read-out: % Inhibition at Different Molar Concentrations (in vitro); for inhibition at 10 µM: 10^-5 molar; for inhibition at 1 µM: 10^-6 molar; for inhibition at 0.1 µM: 10^-7 molar
T1 construct: preparation of the enzyme from bovine lens; from tissue; host or cells: bovine lens
Method: In the present case the procedure of Hayman and Kinoshita is modified in that the final chromatography step is omitted in the preparation of the enzyme from bovine lens.
The following results were obtained when the compounds of this invention were evaluated in the above in vitro test.

With O=C(O)CN1C(=O)c2cccc3cccc(c23)C1=O [1,3-Dioxo-1H-benz[de]isoquinoline-2(3H)-acetic acid] as the molecule, how does the “inhibition of aldose reductase (in words)” value (aldose reductase [1]) read?
The value was “effective inhibitor of aldose reductase”.

For CN(CC(=O)O)C(=S)c1ccc2c(Br)cccc2c1 [CH3 5-Br, N-[(5-bromo-2-naphthalenyl)thioxomethyl]-N-methylglycine], which inhibition at 10 µM (aldose reductase [2]) is on record?
The inhibition at 10 µM was 87%.

And the inhibition at 1 µM (aldose reductase [2])?
Its inhibition at 1 µM is 70%.

And the inhibition at 0.1 µM (aldose reductase [2])?
The inhibition at 0.1 µM was 21%.

For CN(CC(=O)O)C(=S)c1ccc2cc(Br)ccc2c1 [CH3 6-Br, N-[(6-Bromo-2-naphthalenyl)thioxomethyl]-N-methylglycine], which inhibition at 10 µM (aldose reductase [2]) is on record?
The inhibition at 10 µM was 84%.

What about the inhibition at 1 µM (aldose reductase [2]) of the same molecule?
The inhibition at 1 µM was 60%.

What about the inhibition at 0.1 µM (aldose reductase [2]) of the same molecule?
Its inhibition at 0.1 µM is 19%.

For O=C1NC(=O)[C@@]2(CCOc3ccc(F)cc32)N1 [sorbinil, (S)-6-Fluoro-2,3-dihydrospiro(4H-1-benzopyran-4,4'-imidazolidine)-2',5'-dione], which “inhibition of aldose reductase (in words)” value (aldose reductase [1]) is on record?
Its value is “aldose reductase inhibiting properties”.
